Test results published in patent US7482008B1, “Human T cell reactive feline protein (TRFP) isolated from house dust and uses therefor” (Merck Patent GmbH, priority 1989, dated 2009).

Assays:
[1] = tested on: T cells from cat allergic patients; experiment: T cell proliferation of TRFP-primed T cells from cat allergic patients (tritiated thymidine), Example 5 Part A; format: cell-based, human
Description: Peripheral blood mononuclear cells (PBMC) were purified from 60 ml of heparinized blood from cat allergic patients. PBMC were subsequently treated as described below, although in individual cases, the length of time of cultivation with IL-2 and/or IL-4 and the specific peptides used for stimulation varied.
10 ml of PBMC from patient 131 at 10^6 /ml were cultured at 37° C. for 7 days in the presence of 5 μg purified TRFP/ml RPMI-1640 supplemented with 5% pooled human AB serum. Viable cells were purified by Ficoll-Hypaque centrifugation and cultured for three weeks at 5 units recombinant human IL-2/ml and 5 units recombinant human IL-4/ml. The resting T cells were then restimulated (secondary) with 5 μg TRFP at 2×10^5/ml in the presence of irradiated (3500 Rads) autologous PBMC at a concentration of 5×10^5/ml for three days, purified by Ficoll-Hypaque centrifugation and grown in 5 units IL-2 and 5 units IL-4/ml for two weeks. For assay, 2×10^4 resting secondary T cells were restimulated (tertiary) in the presence of 5×10^4 irradiated (3500 Rads) autologous PBMC or 2×10^4 transformed B cells (20,000 Rads) with various concentrations of allergens or their fragments in a volume of 200 microliters in a 96-well round bottom assay plates for 3 days. Each well then received 1 μCurie tritiated (methyl) thymidine for 16 hours. The counts incorporated were collected onto glass fiber filters and processed for liquid scintillation counting.
Antigens used: T cell reactive feline protein (TRFP), Hollister-Stier cat epithelium skin test reagent (CST), IPC ragweed pollen extract (pollen), and synthetic peptides derived from TRFP protein sequence (See FIGS. 6 and 7). Positive T cell proliferation is for these experiments was considered to be greater than 2.5 times the media control (T cells and antigen presenting cells alone).
Alternatively, PBMC were treated as follows: The primary stimulated cells were cultured in IL-2/IL-4 for two weeks. The resting T cells derived from this culture were tested in a secondary assay with some, but not all, of the above allergens. […] This type of epitope analysis has allowed the definition of T cell epitopes present in TRFP.

[2] = tested on: PBMC from cat-allergic patients; experiment: IL-2, IFN-gamma and IL-4 measurements by PCR in primary 36 hour PBMC culture; format: cell-based, human; settings: Patient 409 primary 36 hour culture; for STIMULATION INDEX IFN-γ / STIMULATION INDEX IL-4: PCR, vs medium control
Description: Peripheral blood mononuclear cells (PBMC) were purified from cat-allergic patients as described in Example 5. Five×10^6 PBMC were cultured at 2×10^6/ml for 36 hours in the presence of medium only, 20 μg purified TRFP/ml or 50 μg peptide/ml. The cells were then washed two times with phosphate buffered saline (PBS, pH 7.2) and lysed with 2 ml […] guanidinium isothiocyanate, 0.5% Sarkosyl, 5 mM sodium citrate, 0.1 M 2-mercaptoethanol, pH 7.0. The lysate was then forced through a 26 gauge needle to shear genomic DNA, and was layered onto a 2 ml cushion of 5.7 M CsCl, 0.01 M EDTA, pH 7.5 in diethylpyrocarbonate (DEPC)-treated water. The lysate was centrifuged at 35,000 RPM in a Beckman SW41 rotor for 18 hours at 20° C. The RNA pellet was resuspended in 0.4 ml TE (10 mM Tris, 1 mM EDTA), pH 7.5, 0.1% SDS, and then extracted three times with 0.5 ml phenol/0.2 ml chloroform. The RNA was then precipitated on dry ice with 2.5 volumes ice-cold ethanol, 1/10 volume 3 M sodium acetate, pH 5.2 in DEPC-treated water, rinsed once with 70% ethanol in DEPC-treated water, and dried. The RNA pellet was resuspended in 2 μl TE., pH 7.5 in DEPC-treated water.
Total cellular RNA was converted to cDNA using the Superscript kit (BRL, Bethesda, Md.). Two μl of RNA were added to one μl oligo (dT)12-18 (500 μg/ml) and 9 μl water. The sample was heated to 70° C. for 10 minutes and ice quenched. Four μl 5× buffer were added to the sample along with 2 μl 0.1 M DTT and 1 μl dNTP mix (10 mM each, dATP, dCTP, dGTP, dTTP). One μl reverse transcriptase (200U) was added and the reaction was carried out for one hour at 42° C. The reaction was terminated by incubation of the sample at 90° C. for five minutes and stored at −80° C.
Ten-fold serial dilutions of T cell cDNA in 10 mM TRIS, pH 7.5 were amplified using the standard kit and protocol recommended by Perkin Elmer-Cetus (Redwood City, Calif.). Each sample received 26.65 μl water, 5 μl ×PCR buffer, 8 μl of dNTP mix (1.25 mM each of dATP, dCTP, dGTP and dTTP), 0.1 μl alpha 32P-dCTP (3000 Ci/mmol), 0.25 μl AmpliTaq, 5 μl cDNA and 5 μl cytokine-specific 5′ and 3′ primers (20 micromolar). The primers used for most cytokines and the beta-actin control were purchased from Clontech (Redwood City, Calif.). The human IL-4 primers were purchased from Research Genetics (Huntsville, Ala.) and had the following sequences: 5′ hIL-4 primer (SEQ. ID. NO: 58):
The PCR products were extracted once with 25 μl chloroform and 25 μl of each sample were then electrophoresed on an 8% polyacrylamide gel at 250 V. The gel was dried and exposed to pre-flashed x-ray film. Several exposures of each gel were then scanned using a Shimadzu flying spot laser densitometer. Values on the linear portion of the titrations were then compared to the medium control values to obtain a stimulation index for each sample. Primers for beta-actin were included as a control for general cDNA levels in each sample. Where the medium control values are not detectable, the lowest measurable response was set at 1.00. In other experiments, levels of cytokine cDNA can be compared directly with previously amplified cytokine specific cDNAs as standards. Thus, absolute levels of particular cytokine cDNAs can be compared from one sample to another and from one experiment to another. In this experiment, IL-2, IL-4 and IFN-gamma levels were measured. As shown, in this particular cat-allergic patient, peptides such as Fel 18 generate more IL-4 than certain other TRFP-derived peptides (Fel 14 and Fel 17). This analysis will be expanded to studies of other cytokines involved in the generation of allergic responses, such as IL-5, IL-8, IL-9, TGF-beta. Samples of cDNA from each treatment can also be saved for later analysis once additional cytokines are identified and sequenced. Peptides generating a spectrum of cytokines favorable for the generation of allergic responses can be avoided for therapeutic use in the treatment of cat allergy. […]

| Substance | T cell stimulatory activity ([1]; summary in words of Tables 2 and 3) | RATIO IFN/IL-4 [2] | STIMULATION INDEX IFN-γ [2] | STIMULATION INDEX IL-4 [2] | PI ([1]; Table 2, chain #1 TRFP peptides, average SI of responding patients multiplied by percent of patients with positive response (SI >2.5)) | SI ([1]; Table 2, chain #1 TRFP peptides, average cpm with antigen divided by cpm of T cells and APC alone, responding patients) |
| --- | --- | --- | --- | --- | --- | --- |
| peptide X: amino acid residues 7-30 from chain 1 of TRFP (SEQ. ID. NO: 17); Table 2 lists Fel 8-3 as 7-33 (KRDVDLFLTGTPDEYVEQVAQYKALPV) | powerful activity | – | – | – | – | – |
| TRFP: human T cell reactive feline protein affinity purified from house dust; two covalently linked chains | – | 0.9 | 2.1 | 3.8 | – | – |
| NARILKNCVDAKMTEEDKE [Fel 4, TRFP chain 1 amino acids 37-55] | – | 2.6 | 25.8 | 10.0 | 601 | 7.7 |
